The results in this text go back to patent US20250059264A1, “METHOD OF TREATING STROKE” (AlaMab Therapeutics, Inc., priority 2023, published 2025).

Data set [1] relates to rat model of stroke induced by middle cerebral artery occlusion (MCAO). Put plainly: Cerebral infarct volume by TTC staining, dosing regimen (Example 4). Format: in vivo, SD rats. To be noted: 10 mg/kg (table label) i.v. Bid from 30 min after infarction, 14-days post-operation. How it is done:
(§1) The first administration of the respective treatments was started 30 minutes (Day 1 of study) after the MCAO procedure of the rats. For the butylphthalide group, subsequent doses were administered every day after for 14 days. For the ALMB-0166 test groups, a second dose of the antibody was administered at Day 4 post-stroke (Day 4 of the study). Thirty-six (36) SD rats received behavioral training after adaptive feeding period and before the operation to establish stroke models. The behavioral training included beam-walking, grip and rotarod tests. The experimental rats were then randomly divided into 6 groups according to the body weight, with 6 rats in each test group as described in Table 15. The rats were fasted overnight before modeling and were anesthetized with isoflurane. […] The body weight of rats was recorded before the operation (Day 0 of study) and on Days 2, 4, 7, and 11 after the procedure. The rats were scored by the Longa method at Day 1 (24-hours) post-procedure. The neurological function was evaluated at Days 1, 2, 4, 7, and 14 after the procedure, and was assessed by beam-walking, grip strength, and rotarod tests. […] The total infarct volume was determined, and the infarct volume ratio was calculated by dividing the total infarct volume by the whole brain volume. […]

The subject of data set [2] is mouse model of stroke induced by middle cerebral artery occlusion (MCAO). Put plainly: Grip strength, time of treatment (Example 2). Format: in vivo, ICR mice. The procedure:
The administration of 10 mg/kg butylphthalide and 50 mg/kg ALMB-0166 was started 30 minutes, 2 hours, or 6 hours after the MCAO procedure of the mice. Ninety-six (96) ICR mice received behavioral training after adaptive feeding period and before the operation to establish stroke models. The behavioral training included beam-walking and rotarod test. The experimental mice were then randomly divided into 8 groups according to the values of the body weight, with 12 mice in each test group as described in Table 1. The mice were fasted overnight before modeling and were anesthetized with isoflurane. Right middle cerebral artery occlusion (MCAO) was induced in mice using the intraluminal filament technique to mimic focal cerebral ischemic stroke. After 1 hr, reperfusion was allowed by removing the occlusion. Administration of each treatment was performed 0.5 hrs, 2 hrs, or 6 hrs after the infarction. The neurological function score was evaluated at 24 hrs and 48 hrs after reperfusion, as was assessed by beam-walking, grip strength, and rotarod tests. At 48 hrs after reperfusion, the whole brain tissue of all rats was harvested to assess the cerebral infarct area by TTC staining, as well as to measure brain volume and brain water content, two indicators of acute cerebral edema.

For data set [3] the test system is unchanged. The data set can be described thus: Grip strength (Example 1). Format: in vivo, ICR mice. To be noted: 10 mg/kg i.v. Bid from 30 min after infarction. How it is done: (§2) The administration of the respective treatments was started 30 minutes after the MCAO procedure of the mice.
(§3) Seventy-two (72) ICR mice received behavioral training after adaptive feeding period and before the operation to establish stroke models. The behavioral training included beam-walking and rotarod test. The experimental mice were then randomly divided into 6 groups according to the values of the body weight, with 12 mice in each test group as described in Table 1.
(§4) The mice were fasted overnight before modeling and were anesthetized with isoflurane. Right middle cerebral artery occlusion (MCAO) was induced in mice using the intraluminal filament technique to mimic focal cerebral ischemic stroke. After 1 hr, reperfusion was allowed by removing the occlusion. During the operation, a white light was used to maintain the mouse rectal temperature between 36.5° C.-37.0° C.
(§5) Administration of each treatment was performed 0.5 h after the infarction. The neurological function score was evaluated at 24 hrs and 48 hrs after reperfusion, as was assessed by beam-walking, grip strength, and rotarod tests. At 48 h after reperfusion, the whole brain tissue of all rats was harvested to assess the cerebral infarct area by TTC staining, as well as to measure brain volume and brain water content, two indicators of acute cerebral edema.

The test system of data set [4] is rat model of stroke induced by middle cerebral artery occlusion (MCAO). Details: species or system SD rats. The conditions noted are these: in vivo. How it is done: as §1
The test system of data set [5] is mouse model of stroke induced by middle cerebral artery occlusion (MCAO). Put plainly: Beam-walking test (Example 1). It counts as in vivo, ICR mice. To be noted: 10 mg/kg i.v. Bid from 30 min after infarction. The procedure:
as §2, §3, §4, §5

In data set [6] the test system is rat model of stroke induced by middle cerebral artery occlusion (MCAO). The data set can be described thus: Grip strength (Example 3). It counts as in vivo, SD rats. The conditions noted are these: 10 mg/kg (table label) i.v. Bid from 30 min after infarction. The procedure: (§6) The administration of the respective treatments was started 30 minutes after the MCAO procedure of the rats.
(§7) Seventy-two (72) SD rats received behavioral training after adaptive feeding period and before the operation to establish stroke models. The behavioral training included beam-walking, grip and rotarod tests. The experimental rats were then randomly divided into 6 groups according to the body weight, with 12 rats in each test group as described in Table 15.
(§8) The rats were fasted overnight before modeling and were anesthetized with isoflurane. Right middle cerebral artery occlusion (MCAO) was induced in each rat using the intraluminal filament technique to mimic focal cerebral ischemic stroke. After 2 hrs, reperfusion was allowed by removing the occlusion.
(§9) Administration of each treatment was performed 0.5 h after the infarction. The rats were scored by the Longa method at 24-hours post-procedure. The neurological function was evaluated at 24-hr and 48-hr after reperfusion, and was assessed by beam-walking, grip strength, and rotarod tests. At 48 h after reperfusion, the whole brain tissue of all rats was harvested to assess the cerebral infarct area by TTC staining, as well as to measure brain volume and brain water content, two indicators of acute cerebral edema.

Data set [7] has the same test system. The data set can be described thus: Cerebral infarct volume by TTC staining (Example 3). Format: in vivo, SD rats. The conditions noted are these: 10 mg/kg (table label) i.v. Bid from 30 min after infarction, 48 h after reperfusion. How it is done: as §6, §7, §8, §9

Regarding `CCCCC1OC(=O)c2ccccc21` (centres unmarked) [Butylphthalide], the “Cerebral Infarction Volume” value in data set [1] came out at 15.01%; in data set [7] it was 22.41%. Moreover, the entries for the “Improvement rate of infarction” value in data set [1] (vs model) and in data set [7] (vs model) were 23.64% and 30.84%, respectively. For the same compound, the “Grip Strength” value turned out to be 203.13 ± 35.30 g in data set [2] (10 mg/kg i.v. once 0.5 hr after infarction, 24 h); 196.04 ± 41.72 g in data set [2] (10 mg/kg i.v. once 0.5 hr after infarction, 48 h); 199.41 ± 38.48 g in data set [2] (10 mg/kg i.v. once 2 hr after infarction, 24 h); 186.33 ± 44.64 g in data set [2] (10 mg/kg i.v. once 2 hr after infarction, 48 h); 187.08 ± 53.81 g in data set [2] (10 mg/kg i.v. once 6 hr after infarction, 24 h); 168.16 ± 66.94 g in data set [2] (10 mg/kg i.v. once 6 hr after infarction, 48 h). The “Grip Strength” value in data set [3] (24 h) is on record as 206.29 ± 46.55^ g; in data set [3] (48 h) it was 214.71 ± 34.19 g; in data set [6] (24 h), 404.73 g; in data set [6] (48 h), 419.93 g. In addition, the “Body weight compared to model test group” value in data set [4] is on record as “No statistically significant difference”. Further, the Beam-walking time in data set [5] (24 h) is reported as 41.27 ± 21.52 s; in data set [5] (48 h), 41.92 ± 22.83 s.
